Assay results reported in patent US20170145002A1, “DEUTERATED ISOXAZOLE DERIVATIVES AND THEIR USE AS METABOTROPIC GLUTAMATE RECEPTOR POTENTIATORS” (AstraZeneca AB, priority 2015, published 2017).

Key:
[1] = target: hERG ion channel (Homo sapiens, UniProt Q12809); conditions: as disclosed in WO 2009/148403; cited from earlier work
[2] = as disclosed in WO 2009/148403; cited from earlier work
[3] = target: T1, human metabotropic glutamate receptor 2 (mGluR2) (Homo sapiens, UniProt Q14416); assay: Binding Assay (mGluR2 GTPγ35S assay); type: biochemical; conditions: membranes from CHO-K1 cells expressing human mGluR2; L-glutamate and GTPγ35S stimulation, 45 minutes, SPA
T1 construct: expressed in transfected cells; host or cells: CHO-K1
Protocol: This assay was developed to measure the agonist and/or positive allosteric modulator (PAM) activity of compounds at the human metabotropic glutamate receptor 2 (mGluR2).
Crude membranes were prepared from CHO-K1 cells expressing human mGluR2 and stored at −80° C. in aliquots in 2 mg/mL concentrations using a previously described method Fenge et al., Cytotechnology 38 (2002). Assay buffer is defined as 0.22 μM filtered water containing 50 mM HEPES (Teknova), 10 mM MgCl2 (Teknova), 50 mM NaCl (Teknova), 100 μM DTT (Sigma 43819), pH 7.4. Membrane solution containing membranes, beads, and GDP diluted in assay buffer was prepared in excess and incubated for 15 to 30 minutes at room temperature (25° C.). Membrane solution was prepared in a per-well ratio of 1.8 μg membranes, 225 μg PVT-WGA SPA beads (Perkin Elmer RPNQ0001), 3.3 μM GDP (Sigma G7127) in assay buffer to a final per-well volume of 180 μl. Stimulation buffer was prepared by diluting L-glutamate to 10 μM and GTPγ^35S to 1 nM in assay buffer. […] 20 μL of stimulation buffer was then added to individual wells, plates were sealed, incubated on a shaker at room temperature for 45 minutes, centrifuged at 1000 RPM for 5 minutes and then assessed using a ^35S SPA Program (1 minute read time. Low Background Paralux) on a MicroBeta instrument (PerkinElmer, Waltham, Massachusetts).

[4] = system: recombinant CYP enzymes (CYP1A2, 2A6, 2B6, 2C8, 2C9, 2C19, 2D6, 2E1, 3A4 and 3A5); assay: Turnover in recombinant CYP enzymes; type: in vitro ADME; conditions: 0.1 μM and 1 μM
Protocol: To identify the enzymes responsible for P450 mediated metabolism, the turnover of Compound A was tested in recombinant CYP enzymes (CYP1A2, 2A6, 2B6, 2C8, 2C9, 2C19, 2D6, 2E1, 3A4 and 3A5) at 0.1 μM and 1 μM.

[5] = target: mGluR2 (Homo sapiens, UniProt Q14416); conditions: as disclosed in WO 2009/148403; cited from earlier work
[6] = Metabolite identification and relative abundance in human hepatocytes; type: in vitro ADME; conditions: Compound A 10 μM in human hepatocytes (1 million cells/mL), 4 hours, 37° C.
Protocol: Compound A was incubated at 10 μM in human hepatocytes (1 million cells/mL) for 4 hours at 37° C. under air with 5% CO2. The reaction was stopped by adding acetonitrile at a ratio of 3:1. Following centrifugation the supernatant was transferred to a clean tube and dried under a stream of N2. Following reconstitution in 30% acetonitrile, aliquots of the sample were injected onto a LC/UV/MS system for metabolite identification and profiling. This allowed assessment of the metabolites formed and an indication of their relative abundance (via UV, Table 6).

[7] = Compound turnover and metabolite formation in human hepatocytes with or without CYP3A inhibitor ketoconazole; type: in vitro ADME
Protocol: Approximately 10% of Compound A disappeared in 60 minutes.
Since Compound D was predominantly metabolized by CYP3A4, further experiments were conducted with Compound A in human hepatocytes in the presence and absence of CYP3A inhibitor ketoconazole. […] Parent disappearance data indicated a CYP3A involvement in the metabolism of Compound A (FIG. 1); however, the very low intrinsic clearance values make it difficult to provide an accurate determination of a percentage involvement of CYP3A via a substrate depletion method as described above.
Within the same experiments, the formation of Compound A metabolites in the absence of ketoconazole was observed (FIG. 2).

T1 sequence (Q14416 19-872): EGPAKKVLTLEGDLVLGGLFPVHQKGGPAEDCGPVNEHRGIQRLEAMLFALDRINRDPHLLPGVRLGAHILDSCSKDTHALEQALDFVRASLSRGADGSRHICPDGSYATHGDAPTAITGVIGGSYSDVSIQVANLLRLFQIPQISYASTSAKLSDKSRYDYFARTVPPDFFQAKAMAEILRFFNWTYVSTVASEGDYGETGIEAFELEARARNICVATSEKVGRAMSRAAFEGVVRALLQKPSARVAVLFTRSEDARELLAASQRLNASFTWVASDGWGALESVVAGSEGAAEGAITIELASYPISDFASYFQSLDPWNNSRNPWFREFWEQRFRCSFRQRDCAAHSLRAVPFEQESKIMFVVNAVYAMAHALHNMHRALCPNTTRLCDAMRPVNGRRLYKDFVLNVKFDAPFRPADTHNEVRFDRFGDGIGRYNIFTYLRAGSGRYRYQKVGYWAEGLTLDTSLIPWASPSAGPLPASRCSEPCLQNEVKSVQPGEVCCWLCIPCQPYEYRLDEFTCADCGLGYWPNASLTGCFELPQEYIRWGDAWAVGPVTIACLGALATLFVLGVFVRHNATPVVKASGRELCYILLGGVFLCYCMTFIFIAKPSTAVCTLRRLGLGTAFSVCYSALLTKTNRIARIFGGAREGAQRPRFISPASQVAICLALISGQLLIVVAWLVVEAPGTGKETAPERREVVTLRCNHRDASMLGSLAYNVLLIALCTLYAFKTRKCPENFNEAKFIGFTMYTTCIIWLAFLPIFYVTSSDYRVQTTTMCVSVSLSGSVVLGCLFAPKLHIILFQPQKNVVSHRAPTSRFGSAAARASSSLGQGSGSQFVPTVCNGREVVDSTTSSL
hERG ion channel, sequence (Q12809 whole entry): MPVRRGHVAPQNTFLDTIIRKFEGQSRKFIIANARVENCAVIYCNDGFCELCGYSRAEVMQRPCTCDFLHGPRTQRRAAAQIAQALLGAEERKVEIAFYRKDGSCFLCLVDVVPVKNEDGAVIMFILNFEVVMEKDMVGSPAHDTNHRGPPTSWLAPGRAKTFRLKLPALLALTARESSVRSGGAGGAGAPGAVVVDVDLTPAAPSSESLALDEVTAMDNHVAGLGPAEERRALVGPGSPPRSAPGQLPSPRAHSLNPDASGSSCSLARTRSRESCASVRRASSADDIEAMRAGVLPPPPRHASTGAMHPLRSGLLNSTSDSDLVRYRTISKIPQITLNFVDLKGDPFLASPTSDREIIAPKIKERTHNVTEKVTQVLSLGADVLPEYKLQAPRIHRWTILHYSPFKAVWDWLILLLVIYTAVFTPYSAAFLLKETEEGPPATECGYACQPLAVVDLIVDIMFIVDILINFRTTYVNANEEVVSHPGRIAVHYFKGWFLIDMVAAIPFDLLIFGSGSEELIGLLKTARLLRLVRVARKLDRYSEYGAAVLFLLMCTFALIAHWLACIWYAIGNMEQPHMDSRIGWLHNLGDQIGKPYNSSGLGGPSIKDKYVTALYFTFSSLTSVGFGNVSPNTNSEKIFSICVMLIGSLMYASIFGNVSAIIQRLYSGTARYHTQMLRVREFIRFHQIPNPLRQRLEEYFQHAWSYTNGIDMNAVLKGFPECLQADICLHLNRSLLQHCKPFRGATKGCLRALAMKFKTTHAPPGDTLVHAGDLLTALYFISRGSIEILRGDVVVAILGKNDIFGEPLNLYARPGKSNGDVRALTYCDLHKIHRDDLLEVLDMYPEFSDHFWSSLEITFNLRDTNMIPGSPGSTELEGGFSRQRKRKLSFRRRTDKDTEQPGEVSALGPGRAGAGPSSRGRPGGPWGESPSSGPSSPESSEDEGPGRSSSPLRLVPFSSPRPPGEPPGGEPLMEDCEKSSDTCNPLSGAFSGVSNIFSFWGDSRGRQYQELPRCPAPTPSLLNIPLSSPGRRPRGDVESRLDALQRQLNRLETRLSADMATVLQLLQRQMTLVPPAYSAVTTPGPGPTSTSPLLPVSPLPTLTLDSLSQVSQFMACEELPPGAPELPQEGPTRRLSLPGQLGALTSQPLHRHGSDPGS
mGluR2, sequence (Q14416 19-872): as the sequence (Q14416 19-872) above

| EC50 [3] | Turnover in recombinant CYP enzymes [4] | Relative UV abundance (%) Human [6] | Turnover in human hepatocytes [7] | Parent compound disappeared ([7]; 60 minutes, absence of ketoconazole) | Turnover in presence of CYP3A inhibitor ([7]; with ketoconazole) | Structure (SMILES) | Capacity to activate the hERG ion channel [1] | Solubility [2] | mGluR2 modulator activity [5] |
| --- | --- | --- | --- | --- | --- | --- | --- | --- | --- |
| 121 ± 56 nM | predominantly metabolised by CYP3A4 |  |  |  |  | C[C@@H](C1CC1)N1Cc2cc(-c3cc(C(=O)N4CCOCC4)no3)cc(Cl)c2C1=O [Compound D, (S)-7-chloro-2-(1-cyclopropylethyl)-5-(3-(morpholine-4-carbonyl)isoxazol-5-yl)isoindolin-1-one, reference compound] | low capacity to activate the hERG ion channel | favorable solubility | highly active |
| 170 ± 9 nM | No significant turnover was observed | 94.2% | very low turnover | Approximately 10% | No turnover was observed | [2H]C1([2H])OC([2H])([2H])C([2H])([2H])N(C(=O)c2cc(-c3cc(Cl)c4c(c3)CN([C@@H](C)C3CC3)C4=O)on2)C1([2H])[2H] [Compound A, (S)-7-chloro-2-(1-cyclopropylethyl)-5-(3-(morpholine-4-carbonyl-2,2,3,3,5,5,6,6-d8)isoxazol-5-yl)isoindolin-1-one] |  |  |  |
